Data as given in patent US20080293936A1, “Novel inhibitors of lysyl oxidase” (priority 2007, published 2008).

Assays:
Lysyl oxidase [1] = biological target: T1, Lysyl oxidase (Bos taurus, UniProt P33072); test: Kinetic investigation: dialysis of lysyl oxidase-inhibitor complexes against inhibitor-free buffer, recovery of activity; assay type: biochemical, bovine; conditions: for vt/vmax: preincubation at 10-fold IC50; for k−1: calculated from slopes; for kon: pH 8.2, from k−1 and IC50, read-out: k1 (association velocity constant) (converted)
T1 construct: The enzyme preparation was carried out at 4° C. with fresh material from bovine aorta; from tissue; host or cells: bovine aorta
T1 sequence (P33072 170-418): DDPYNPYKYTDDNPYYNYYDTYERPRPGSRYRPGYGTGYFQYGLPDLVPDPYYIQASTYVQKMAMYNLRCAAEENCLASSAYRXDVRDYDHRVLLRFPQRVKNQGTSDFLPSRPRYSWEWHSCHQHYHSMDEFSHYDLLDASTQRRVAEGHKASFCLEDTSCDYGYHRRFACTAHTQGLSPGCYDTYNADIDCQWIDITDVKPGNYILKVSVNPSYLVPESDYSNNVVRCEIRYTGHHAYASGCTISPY
Method: Lysyl oxidasee and lysyl oxidase inhibitors of the structural formulas (XX)-(XXIII) (Table 1) were coincubated at concentrations that were 10-fold over the respective IC50 of the inhibitor and were subsequently dialyzed against 0.5 M borax buffer at pH 8.2 without added inhibitor. The dialysis buffer was exchanged twice during the first hour and subsequently three times in hourly intervals. The volume against which was dialyzed was at least 100-fold greater than the volume of the lysyl oxidase preparation in the dialysis tube. After 2, 4, 5 und 19 h lysyl oxidase activity was measured as described in Example 2. In a parallel assay a dialysis with a non-inhibited lysyl oxidase preparation was carried out to determine the effect of spontaneous activity loss during dialysis and to obtain a reference value (100% activity, positive control). From the obtained change in time-dependent activity it was possible to calculate the dissociation velocity constants of the inhibitor compounds, the half life times of the enzyme-inhibitor complexes and the association velocity constants. In the following section it is derived how these kinetic parameters can be determined form the measurement of the reaction velocity with the inhibited fraction at the timepoint t (vt) and the reaction velocity with the positive control (vmax).
Derivations: During dialysis against buffer without inhibitor the complex (EI) consisting of enzyme (E) and inhibitor (I) decays with a dissociation constant of first k−1
The velocity of decay is proportional to the concentration of the enzyme-inhibitor complex:
Rearranging this equation and definite Integration from the initial enzyme-inhibitor-complex concentration ([EI]0) to the concentration of the complex at the measurement time point t ([EI]t) on the left side and from t=0 to t on the right side yields:
The ratio of the reaction velocity when the inhibited enzyme preparation is used at a measurement time point t (vt) to the reaction velocity when the positive control is used (vmax) is dependent on the proportion of the total enzyme concentration in the assay ([E]0) that is present as enzyme-inhibitor-complex concentration at a time point t ([EI]t). The following equation describes this relationship: […]
For reasons of simplification a variable Rt can be defined
Solving the above differential equation and substituting Rt into the equation one obtains: […]
By linear regression with ln Rt and t, k−1 can be determined as the coefficient of slope.
Using k−1 one can calculate the half-life time of the enzyme-inhibitor-complexes (t1/2) as:
To determine the kinetic association constant the equilibrium is considered:
At the particular inhibitor concentration (IC50) at which the reaction velocity is 50% of the reaction velocity of the positive control, the free enzyme concentration ([E]) is approximately equal to the concentration of the enzyme inhibitor complex ([EI])
By substitution into the equilibrium equation and by simple rearrangement one obtains a term for the association constant which is dependent on the dissociation constant determined above and on the IC50:
Results Tables 2a to 2d show the results from reaction velocity measurements at the time points after 0, 120, 270 and 1140 min of dialysis against an inhibitor-free buffer. The relative reaction velocities and the derived constants are provided. In addition, the results of a regression analysis according to Example 3 are provided, from which the kinetic constants from table 3 can be calculated. Results are shown for compounds (XX)-[…].

Lysyl oxidase [2] = biological target: T1, Lysyl oxidase; test: Lysyl oxidase inhibition, peroxidase-coupled fluorometric activity test; assay type: biochemical, bovine
Method: Lysyl oxidase was isolated form bovine aorta, modified according to Williams und Kagan (1985) Assessment of lysyl oxidase variants by urea gel electrophoresis: evidence against disulfide isomers as bases of the enzyme heterogeneity. Anal. Biochem. 149: 430-7, and Kagan und Sullivan (1982) Lysyl oxidase: preparation and role in elastin biosynthesis. Methods Enzymol. 82(Pt A): 637-50. The enzyme preparation was carried out at 4° C. with fresh material from bovine aorta. The aorta was homogenized for 90 seconds in 2.5. ml buffer per gram of tissue. The buffer consisted of 16 mM potassium phosphate, 150 mM sodium chloride and 1 mM phenylmethylsulfonylfluoride. The homogenized mixture was centrifuged for 20 minutes at 11,000 g. The homogenization was followed by a centrifugation step and was repeated with 150 mM sodium chloride buffer and 1 M urea buffer. The pellet that was obtained after centrifugation was homogenized in buffer plus 4 M urea, was stirred over night and centrifuged twice. The supernatants with the lysyl oxidase activity were stored each time.
To determine the specific enzyme activity of lysyl oxidase a coupled activity test with fluorescence was applied (modified according to nach Trackman P C, Zoski C G, Kagan, H M (1981) Development of a peroxidase-coupled fluorometric assay for lysyl oxidase. Anal. Biochem. 113: 336-342).
Into a 2 ml plastic cuvette the following reaction solution was pipetted:
The fluorescence of the reaction solution was determined at an excitation wavelength of 350 nm and measurement of emission was carried out at 425 nm at 37° C. Before the addition of the sample solution fluorescence was determined by calibration with 1 nmol hydrogen peroxide. This increase in fluorescence was equivalent to a turnover of 1 nmol 1,5-diaminopentane. As a positive control the time course of the increase in fluorescence when an equivalent volume of lysyl oxidase without inhibitor was added, was used. The development of fluorescence of the assay without the addition of lysyl oxidase used as a negative control. […]

[3] = regression analysis below Tables 2a-2d

`COCCc1ccc(Oc2c(-n3ccnc3)cnn(-c3ccc(Cl)cc3)c2=O)cc1` [(XX), 2-(4-chlorophenyl)-5-(1H-imidazole-1-yl)-4-[4-(2-methoxyethyl)phenoxy]pyridazine-3(2H)-one] was tested, and the Rt (Lysyl oxidase [1]; 0 min of dialysis) was 1, the “ln Rt” value (Lysyl oxidase [1]; 0 min of dialysis) was 0 and the vt/vmax (Lysyl oxidase [1]; 0 min of dialysis) was 0. For the same molecule, the Rt (Lysyl oxidase [1]; 120 min of dialysis) was 0.91, the “ln Rt” value (Lysyl oxidase [1]; 120 min of dialysis) was −9.431 × 10^−2 and the vt/vmax (Lysyl oxidase [1]; 120 min of dialysis) was 9 × 10^−2. The Rt (Lysyl oxidase [1]; 270 min of dialysis) was 0.72, the “ln Rt” value (Lysyl oxidase [1]; 270 min of dialysis) was −0.3285 and the vt/vmax (Lysyl oxidase [1]; 270 min of dialysis) was 0.28. For the same molecule, the Rt (Lysyl oxidase [1]; 1,140 min of dialysis) was 0, the vt/vmax (Lysyl oxidase [1]; 1,140 min of dialysis) was 1 and the “k−1” value (Lysyl oxidase [1]; Table 3) was 0.053 h⁻¹. The kon (Lysyl oxidase [1]; Table 3) was 13.6 M⁻¹ s⁻¹.

In the case of `O=c1c(Oc2ccc(-c3ccccc3)cc2)c(-n2ccnc2)cnn1-c1ccc(Cl)cc1Cl` [(XXII), 4-(1,1′-biphenyl-4-yloxy)-2-(2,4-dichlorophenyl)-5-(1H-imidazole-1-yl)pyridazine-3(2H)-one], the Rt (Lysyl oxidase [1]; 0 min of dialysis) is reported as 1, the “ln Rt” value (Lysyl oxidase [1]; 0 min of dialysis) is reported as 0 and the vt/vmax (Lysyl oxidase [1]; 0 min of dialysis) is reported as 0. For the same molecule, the Rt (Lysyl oxidase [1]; 120 min of dialysis) was 0.75, the “ln Rt” value (Lysyl oxidase [1]; 120 min of dialysis) was −0.2877 and the vt/vmax (Lysyl oxidase [1]; 120 min of dialysis) was 0.25. The Rt (Lysyl oxidase [1]; 270 min of dialysis) was 0.64, the “ln Rt” value (Lysyl oxidase [1]; 270 min of dialysis) was −0.4463 and the vt/vmax (Lysyl oxidase [1]; 270 min of dialysis) was 0.36. For the same molecule, the Rt (Lysyl oxidase [1]; 1,140 min of dialysis) was 0.33, the “ln Rt” value (Lysyl oxidase [1]; 1,140 min of dialysis) was −1.109 and the vt/vmax (Lysyl oxidase [1]; 1,140 min of dialysis) was 0.67. The “k−1” value (Lysyl oxidase [1]; Table 3) was 0.074 h⁻¹, the kon (Lysyl oxidase [1]; Table 3) was 75 M⁻¹ s⁻¹ and the “k−1 (dissociation velocity constant)” value (Lysyl oxidase [1]; [3]) was 0.05344 h⁻¹.

`CCCc1ccc(Oc2c(-n3ccnc3)cnn(-c3ccc(Cl)cc3)c2=O)cc1` [(XXIII), 2-(4-chlorophenyl)-5-(1H-imidazole-1-yl)-4-(4-propylphenoxy)pyridazine-3(2H)-one] was tested, and the Rt (Lysyl oxidase [1]; 0 min of dialysis) was 0.84, the “ln Rt” value (Lysyl oxidase [1]; 0 min of dialysis) was −0.1744 and the vt/vmax (Lysyl oxidase [1]; 0 min of dialysis) was 0.16. The Rt (Lysyl oxidase [1]; 120 min of dialysis) was 0.47, the “ln Rt” value (Lysyl oxidase [1]; 120 min of dialysis) was −0.7550 and the vt/vmax (Lysyl oxidase [1]; 120 min of dialysis) was 0.53. For the same molecule, the Rt (Lysyl oxidase [1]; 270 min of dialysis) was 0.37, the “ln Rt” value (Lysyl oxidase [1]; 270 min of dialysis) was −0.9943 and the vt/vmax (Lysyl oxidase [1]; 270 min of dialysis) was 0.63. For the same molecule, the Rt (Lysyl oxidase [1]; 1,140 min of dialysis) was 0.11, the “ln Rt” value (Lysyl oxidase [1]; 1,140 min of dialysis) was −2.207 and the vt/vmax (Lysyl oxidase [1]; 1,140 min of dialysis) was 0.89. The “k−1” value (Lysyl oxidase [1]; Table 3) was 0.097 h⁻¹, the residence time (Lysyl oxidase [1]; Table 3, from k−1, read-out: t1/2 (half-life time of the enzyme-inhibitor complex) (converted)) was 438 min and the kon (Lysyl oxidase [1]; Table 3) was 18.3 M⁻¹ s⁻¹. The “k−1 (dissociation velocity constant)” value (Lysyl oxidase [1]; [3]) was 0.09694 h⁻¹, the “slope (linear regression of ln Rt against t)” value (Lysyl oxidase [1]; [3]) was −1.616×10^−3 1/min and the IC50 (Lysyl oxidase [2]; Table 1, lysyl oxidase from bovine aorta, 37° C., pH 8.2) was 1470 nM. The IC50 (Lysyl oxidase [2]; Table 3) was 1470 nM and the IC50 (Lysyl oxidase [2]; as quoted in titles of Tables 2a-2d) was roughly 1470 nM.
